# From article PMC4971072, “Chemically Homogenous Compounds with Antagonistic Properties at All α1-Adrenoceptor Subtypes but not β1-Adrenoceptor Attenuate Adrenaline-Induced Arrhythmia in Rats” (Frontiers in Pharmacology, 2016)
# Where two headings read alike, the source gives them in different places. Marks after values point to notes of the source that are not given here.
# What was measured:
# [1] = test system: adrenaline-induced arrhythmia in rats; test: Prophylactic antiarrhythmic activity in adrenaline-induced arrhythmia; type: in vivo, rat
# Procedure: The studied compounds were administered i.p. 45 min before the injection of adrenaline, calcium chloride, or barium chloride. The electrocardiogram (ECG) was recorded during the first 2 min as well as in the 5th, 10th, and 15th min after the arrhythmogen injection. […]
# α1A-adrenoceptors = target: T1, α1A-adrenoceptors (Rattus norvegicus, UniProt P43140); conditions: rat tail artery, cited from earlier work
# T1 construct: the middle part of the ventral caudal artery was removed; from tissue; host or cells: isolated rat tail (ventral caudal) artery rings
# T1 sequence (P43140 1-466): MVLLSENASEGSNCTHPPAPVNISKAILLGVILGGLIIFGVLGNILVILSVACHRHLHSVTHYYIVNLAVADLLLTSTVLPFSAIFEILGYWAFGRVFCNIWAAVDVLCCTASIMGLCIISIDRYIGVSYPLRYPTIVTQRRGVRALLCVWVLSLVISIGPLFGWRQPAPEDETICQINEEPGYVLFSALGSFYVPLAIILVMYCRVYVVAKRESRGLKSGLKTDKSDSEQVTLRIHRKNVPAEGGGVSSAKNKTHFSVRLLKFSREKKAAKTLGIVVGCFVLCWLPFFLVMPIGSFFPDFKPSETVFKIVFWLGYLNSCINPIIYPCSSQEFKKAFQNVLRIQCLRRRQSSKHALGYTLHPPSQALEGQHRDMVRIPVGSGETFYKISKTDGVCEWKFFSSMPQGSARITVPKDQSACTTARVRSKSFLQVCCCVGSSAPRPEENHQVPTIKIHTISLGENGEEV
# α1B-adrenoceptors = target: T2, α1B-adrenoceptors (Mus musculus, UniProt P97717); conditions: mouse spleen, cited from earlier work
# T2 construct: The spleen was removed from male mice; from tissue; host or cells: isolated mouse spleen
# T2 sequence (P97717 1-514): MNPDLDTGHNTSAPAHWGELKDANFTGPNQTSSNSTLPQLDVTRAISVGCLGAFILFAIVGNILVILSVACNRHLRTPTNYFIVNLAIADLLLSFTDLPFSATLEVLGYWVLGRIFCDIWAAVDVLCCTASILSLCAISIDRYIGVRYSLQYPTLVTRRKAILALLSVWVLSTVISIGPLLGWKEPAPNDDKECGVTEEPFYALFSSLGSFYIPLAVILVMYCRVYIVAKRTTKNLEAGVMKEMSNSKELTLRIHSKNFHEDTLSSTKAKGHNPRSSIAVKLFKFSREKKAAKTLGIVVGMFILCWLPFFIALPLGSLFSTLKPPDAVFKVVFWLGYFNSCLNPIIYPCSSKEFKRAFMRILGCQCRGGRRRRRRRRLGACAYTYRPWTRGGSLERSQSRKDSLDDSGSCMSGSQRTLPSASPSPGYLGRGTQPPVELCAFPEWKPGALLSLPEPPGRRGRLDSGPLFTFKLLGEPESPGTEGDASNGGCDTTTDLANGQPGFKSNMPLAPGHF
# α1D-adrenoreceptors = target: T3, α1D-adrenoreceptors (Rattus norvegicus, UniProt P23944); conditions: rat aorta; ref Eltze (1996); cited from earlier work
# T3 sequence (P23944 1-561): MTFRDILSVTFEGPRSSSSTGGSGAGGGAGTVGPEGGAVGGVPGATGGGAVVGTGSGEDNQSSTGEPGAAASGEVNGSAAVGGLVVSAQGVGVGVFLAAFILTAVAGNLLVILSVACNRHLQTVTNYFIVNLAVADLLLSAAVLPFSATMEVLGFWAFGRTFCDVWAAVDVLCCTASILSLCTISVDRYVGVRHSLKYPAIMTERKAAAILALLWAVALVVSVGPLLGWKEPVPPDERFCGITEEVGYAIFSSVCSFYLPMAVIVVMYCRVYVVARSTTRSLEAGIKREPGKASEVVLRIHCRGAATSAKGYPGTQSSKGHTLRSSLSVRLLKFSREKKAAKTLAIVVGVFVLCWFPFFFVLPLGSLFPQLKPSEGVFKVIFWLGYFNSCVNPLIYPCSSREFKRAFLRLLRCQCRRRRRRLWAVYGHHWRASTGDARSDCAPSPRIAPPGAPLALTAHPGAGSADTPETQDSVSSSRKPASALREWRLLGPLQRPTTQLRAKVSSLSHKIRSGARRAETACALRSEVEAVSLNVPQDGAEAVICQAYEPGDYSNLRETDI
# [2] = test system: lipid peroxidation in rat brain homogenate; test: Lipid peroxidation in rat brain homogenate (TBARS), antioxidant effect; type: biochemical; conditions: 10^−3 M
# Procedure: The rat brain homogenate containing 10 mg tissue/ml was prepared in 0.9% saline. The rates of membrane lipid peroxidation were measured by the formation of thiobarbituric acid reactive substances (TBARS). Rat brain homogenates (1 ml) were incubated at 37°C for 5 min with 10 μl of a tested compound or vehicle. Lipid peroxidation was initiated by the addition of 50 μl of 0.5 mM FeCl2 and 50 μl of 2.0 mM ascorbic acid. After 30 min of incubation, the reaction was stopped by adding 0.1 ml of 0.2% butylated hydroxytoluene (BHT). Thiobarbituric acid reagent was then added and the mixture was heated for 15 min in a boiling water bath.
# α1-adrenoceptor [3] = conditions: ref Pönicke et al. (2002); read-out: Adrenergic receptors Ki α1; cited from earlier work
# α1A−adrenoceptor subtype = test system: α1A−adrenoceptor subtype; set-up: method as in Koshimizu et al. (2004); conditions: ref Koshimizu et al. (2004); cited from earlier work
# α1B−adrenoceptor = test system: α1B−adrenoceptor; set-up: method as in Koshimizu et al. (2004); conditions: ref Koshimizu et al. (2004); cited from earlier work
# α1-adrenoceptor [4] = test: α1-adrenoceptor radioligand binding assay ([3H]-prazosin, rat cerebral cortex); conditions: read-out: Adrenergic receptors Ki α1
# Procedure: The α1- and β1-adrenoceptor radioligand binding assay was performed on rat cerebral cortex. […] The cell pellet was resuspended in the Tris–HCl buffer and centrifuged again. Radioligand binding assays were performed in plates (MultiScreen/Millipore). […] The incubation was terminated by rapid filtration through glass fiber filters (Whatman GF/C) using a vacuum manifold (Millipore). The filters were then washed twice with the assay buffer and placed in scintillation vials with a liquid scintillation cocktail. […] All the assays were made in duplicate and the inhibitory constants (Ki) were estimated.
# LO–labeled ligand concentration, KD–dissociation constant of labeled ligand
# [5] = adrenaline 20 μg/kg i.v. alone (arrhythmia control)
smiles,measurement,setting,value
"CNC[C@H](O)c1ccc(O)c(O)c1 [Adrenaline, adrenaline]",Bigeminy (%),[1]; [5],33.3%
same,Blocks (%),[1]; [5],50.0%
same,Bradycardia (%),[1]; [5],66.7%
"COc1cc2nc(N3CCN(C(=O)c4ccco4)CC3)nc(N)c2cc1OC [Prazosin, prazosin]","pA2 ± S.E.M., α1A",α1A-adrenoceptors; ref Parés-Hipólito et al. (2006),8.93 ± 0.03^a
same,"pA2 ± S.E.M., α1B",α1B-adrenoceptors; ref Eltze (1996),9.07 ± 0.09^b
same,"pA2 ± S.E.M., α1D",α1D-adrenoreceptors,8.85 ± 0.09^b
"COc1ccccc1OCCNCC(O)COc1cccc2[nH]c3ccccc3c12 (stereo not shown) [Carvedilol, carvedilol, reference compound]",ED50,"[1]; Rattus norvegicus, read-out: ED50 (confidence limits)",0.36 mg/kg
same,inhibition of lipid peroxidation (in words),[2],inhibited lipid peroxidation
same,% reduction of absorbance (% antioxidant activity),[2]; TBARs at 532 nm,89.58%
same,Absorbance,[2]; TBARs at 532 nm,0.094 ± 0.002
same,pA2 value for α1A−adrenoceptor subtype,α1A−adrenoceptor subtype,9.0
same,pA2 value for α1B−adrenoceptor,α1B−adrenoceptor,10.0
"Cc1ccc(N(CC2=NCCN2)c2cccc(O)c2)cc1 [Phentolamine, phentolamine, reference compound]",Ki,α1-adrenoceptor [4],18.3 nM
CCOc1ccccc1OCCN[C@H](C)Cc1ccc(OC)c(S(N)(=O)=O)c1 [Tamsulosin],"pA2 ± S.E.M., α1A",α1A-adrenoceptors; ref Jähnichen et al. (2004),10.32 ± 0.05^c
same,"pA2 ± S.E.M., α1B",α1B-adrenoceptors; ref Eltze et al. (1999),8.33 ± 0.08^d
